Laboratory results: patent US20190174812A1, “SOLID ORAL NICOTINE FORMULATION” (Fertin Pharma A/S, priority 2017, published 2019)

Conditions: nicotine concentration raised from 100 microgram/mL to 14,000 microgram/mL

Compound: CN1CCCC1c1cccnc1 (stereo not shown) [nicotine]
- Decrease of permeability of nicotine across the buccal mucosa (factor): two
